Activity calls are given as the source filed them. The calls are words filed in the database; no cut-off is given here.
Experiments:
M21 [1] = assay: Induction DNA DSBs in human M21 cells assessed as increase in gamma H2AX foci at 1 uM incubated for 24 hrs by DAPI staining based immunocytochemistry; assay type: cell-based
M21 [2] = assay: Cell cycle arrest in human M21 cells assessed as accumulation at S phase at 1 uM after 24 hrs by DAPI staining-based flow cytometry (reference value: 17.4%); assay type: functional
M21 [3] = assay: Cell cycle arrest in human M21 cells assessed as accumulation at G2/M phase at 1 uM after 24 hrs by DAPI staining-based flow cytometry (reference value: 16%); assay type: functional
MCF7 = assay: Antiproliferative activity against human MCF7 cells assessed as growth inhibition incubated for 48 hrs by sulforhodamine B assay; assay type: functional, cell-based; conditions: MCF7, 48 h
M21 [4] = assay: Cell cycle arrest in human M21 cells assessed as accumulation at subG1 phase at 1 uM after 24 hrs by DAPI staining-based flow cytometry (reference value: 1.5%); assay type: functional
M21 [5] = assay: Cell cycle arrest in human M21 cells assessed as accumulation at G0/G1 phase at 1 uM after 24 hrs by DAPI staining-based flow cytometry (reference value: 65.1%); assay type: functional
[6] = Antiproliferative activity against human HT1080 cells assessed as growth inhibition incubated for 48 hrs by sulforhodamine B assay; assay type: functional, cell-based, HT-1080
HT-29 = assay: Antiproliferative activity against human HT-29 cells assessed as growth inhibition incubated for 48 hrs by sulforhodamine B assay; assay type: functional, cell-based; conditions: HT-29, 48 h
M21 [7] = assay: Antiproliferative activity against human M21 cells assessed as growth inhibition incubated for 48 hrs by sulforhodamine B assay; assay type: functional, cell-based; conditions: M21, 48 h
M21 [8] = assay: Cell cycle arrest in human M21 cells assessed as accumulation at G2/M phase at 39 uM after 24 hrs by DAPI staining-based flow cytometry (reference value: 16%); assay type: functional
M21 [9] = assay: Cell cycle arrest in human M21 cells assessed as accumulation at G0/G1 phase at 39 uM after 24 hrs by DAPI staining-based flow cytometry (reference value: 65.1%); assay type: functional
M21 [10] = assay: Cell cycle arrest in human M21 cells assessed as accumulation at subG1 phase at 39 uM after 24 hrs by DAPI staining-based flow cytometry (reference value: 1.5%); assay type: functional
M21 [11] = assay: Cell cycle arrest in human M21 cells assessed as accumulation at S phase at 39 uM after 24 hrs by DAPI staining-based flow cytometry (reference value: 17.4%); assay type: functional
M21 [12] = assay: Cell cycle arrest in human M21 cells assessed as accumulation at G0/G1 phase at 34 uM after 24 hrs by DAPI staining-based flow cytometry (reference value: 65.1%); assay type: functional
M21 [13] = assay: Cell cycle arrest in human M21 cells assessed as accumulation at subG1 phase at 34 uM after 24 hrs by DAPI staining-based flow cytometry (reference value: 1.5%); assay type: functional
M21 [14] = assay: Cell cycle arrest in human M21 cells assessed as accumulation at S phase at 34 uM after 24 hrs by DAPI staining-based flow cytometry (reference value: 17.4%); assay type: functional
M21 [15] = assay: Cell cycle arrest in human M21 cells assessed as accumulation at G2/M phase at 34 uM after 24 hrs by DAPI staining-based flow cytometry (reference value: 16%); assay type: functional
M21 [16] = assay: Cell cycle arrest in human M21 cells assessed as accumulation at subG1 phase at 13 uM after 24 hrs by DAPI staining-based flow cytometry (reference value: 1.5%); assay type: functional
M21 [17] = assay: Cell cycle arrest in human M21 cells assessed as accumulation at G2/M phase at 13 uM after 24 hrs by DAPI staining-based flow cytometry (reference value: 16%); assay type: functional
M21 [18] = assay: Cell cycle arrest in human M21 cells assessed as accumulation at G0/G1 phase at 13 uM after 24 hrs by DAPI staining-based flow cytometry (reference value: 65.1%); assay type: functional
M21 [19] = assay: Cell cycle arrest in human M21 cells assessed as accumulation at S phase at 13 uM after 24 hrs by DAPI staining-based flow cytometry (reference value: 17.4%); assay type: functional
M21 [20] = assay: Cell cycle arrest in human M21 cells assessed as accumulation at G2/M phase at 4.1 uM after 24 hrs by DAPI staining-based flow cytometry (reference value: 16%); assay type: functional
M21 [21] = assay: Cell cycle arrest in human M21 cells assessed as accumulation at G0/G1 phase at 4.1 uM after 24 hrs by DAPI staining-based flow cytometry (reference value: 65.1%); assay type: functional
M21 [22] = assay: Cell cycle arrest in human M21 cells assessed as accumulation at subG1 phase at 4.1 uM after 24 hrs by DAPI staining-based flow cytometry (reference value: 1.5%); assay type: functional
M21 [23] = assay: Cell cycle arrest in human M21 cells assessed as accumulation at S phase at 4.1 uM after 24 hrs by DAPI staining-based flow cytometry (reference value: 17.4%); assay type: functional
M21 [24] = assay: Cell cycle arrest in human M21 cells assessed as accumulation at G2/M phase at 7.6 uM after 24 hrs by DAPI staining-based flow cytometry (reference value: 16%); assay type: functional
M21 [25] = assay: Cell cycle arrest in human M21 cells assessed as accumulation at subG1 phase at 7.6 uM after 24 hrs by DAPI staining-based flow cytometry (reference value: 1.5%); assay type: functional
M21 [26] = assay: Cell cycle arrest in human M21 cells assessed as accumulation at S phase at 7.6 uM after 24 hrs by DAPI staining-based flow cytometry (reference value: 17.4%); assay type: functional
M21 [27] = assay: Cell cycle arrest in human M21 cells assessed as accumulation at G0/G1 phase at 7.6 uM after 24 hrs by DAPI staining-based flow cytometry (reference value: 65.1%); assay type: functional
M21 [28] = assay: Induction DNA DSBs in human M21 cells assessed as increase in gamma H2AX foci at 4.1 uM incubated for 24 hrs by DAPI staining based immunocytochemistry; assay type: cell-based
M21 [29] = assay: Cell cycle arrest in human M21 cells assessed as accumulation at S phase at 8.1 uM after 24 hrs by DAPI staining-based flow cytometry (reference value: 17.4%); assay type: functional
M21 [30] = assay: Cell cycle arrest in human M21 cells assessed as accumulation at G2/M phase at 8.1 uM after 24 hrs by DAPI staining-based flow cytometry (reference value: 16%); assay type: functional
M21 [31] = assay: Cell cycle arrest in human M21 cells assessed as accumulation at subG1 phase at 8.1 uM after 24 hrs by DAPI staining-based flow cytometry (reference value: 1.5%); assay type: functional
M21 [32] = assay: Cell cycle arrest in human M21 cells assessed as accumulation at G0/G1 phase at 8.1 uM after 24 hrs by DAPI staining-based flow cytometry (reference value: 65.1%); assay type: functional
M21 [33] = assay: Induction DNA DSBs in human M21 cells assessed as increase in gamma H2AX foci at 20 uM incubated for 24 hrs by DAPI staining based immunocytochemistry; assay type: cell-based
[34] = Homo sapiens, HT-1080, 48 h, read-out: IC50

SMILES | IC50 (MCF7) | IC50 [6, 34] | IC50 (HT-29) | IC50 (M21 [7]) | also measured
O=C(NCCCl)Nc1ccc(S(=O)(=O)Oc2ccccc2I)cc1 | 1.51 µM | 1.2 µM | 1.5 µM | 1.9 µM | Activity (M21 [1]): Active; Activity (M21 [2]): 46.9%; Activity (M21 [3]): 15%; Activity (M21 [4]): 1.7%; Activity (M21 [5]): 36.4%
Cc1cc(OS(=O)(=O)c2ccc(NC(=O)NCCCl)cc2)cc(C)c1C | 9.4 µM | 9 µM | 6.6 µM | 6.5 µM | Activity (M21 [8]): 65.1%; Activity (M21 [9]): 11.4%; Activity (M21 [10]): 8.7%; Activity (M21 [11]): 14.8%
O=C(NCCCl)Nc1ccc(S(=O)(=O)Oc2ccc(Cl)cc2)cc1 | 7.3 µM | 5.9 µM | 6.3 µM | 6 µM | Activity (M21 [12]): 19%; Activity (M21 [13]): 8.6%; Activity (M21 [14]): 6.6%; Activity (M21 [15]): 65.8%
O=C(NCCCl)Nc1ccc(S(=O)(=O)Oc2ccc(O)cc2)cc1 |  |  |  |  | IC50 ([6]; ht-1080): Not Active
O=C(NCCCl)Nc1ccc(S(=O)(=O)Oc2cccc(F)c2)cc1 | 7.8 µM | 4.5 µM | 5.5 µM | 5.3 µM | Activity (M21 [12]): 2.5%; Activity (M21 [13]): 6.2%; Activity (M21 [14]): 4.4%; Activity (M21 [15]): 86.9%
O=C(NCCCl)Nc1ccc(S(=O)(=O)Oc2cccc(Cl)c2)cc1 | 3.7 µM | 2.6 µM | 2.8 µM | 2.6 µM | Activity (M21 [16]): 5.2%; Activity (M21 [17]): 80.6%; Activity (M21 [18]): 7.2%; Activity (M21 [19]): 7%
COc1ccccc1OS(=O)(=O)c1ccc(NC(=O)NCCCl)cc1 | 19 µM | 8.3 µM | 13 µM | 15 µM | 
O=C(NCCCl)Nc1ccc(S(=O)(=O)Oc2ccc(I)cc2)cc1 | 11 µM | 8.7 µM | 9.5 µM | 11 µM | 
O=C(NCCCl)Nc1ccc(S(=O)(=O)Oc2ccccc2)cc1 | 19 µM | 8.8 µM | 17 µM | 16 µM | 
Cc1ccc(OS(=O)(=O)c2ccc(NC(=O)NCCCl)cc2)cc1 | 19 µM | 12 µM | 20 µM | 17 µM | 
CCc1ccccc1OS(=O)(=O)c1ccc(NC(=O)NCCCl)cc1 | 4.1 µM | 1.2 µM | 3.3 µM | 2.1 µM | Activity (M21 [20]): 19.2%; Activity (M21 [21]): 34.7%; Activity (M21 [22]): 2%; Activity (M21 [23]): 44.1%
Cc1ccc(C)c(OS(=O)(=O)c2ccc(NC(=O)NCCCl)cc2)c1 | 1.9 µM | 1.7 µM | 1.5 µM | 1.5 µM | Activity (M21 [24]): 75.4%; Activity (M21 [25]): 5.5%; Activity (M21 [26]): 11.9%; Activity (M21 [27]): 7.2%
CC(C)(C)c1ccc(OS(=O)(=O)c2ccc(NC(=O)NCCCl)cc2)cc1 | 17 µM | 6.8 µM | 15 µM | 18 µM | 
CCc1cccc(OS(=O)(=O)c2ccc(NC(=O)NCCCl)cc2)c1 | 7.1 µM | 3.8 µM | 5.6 µM | 6 µM | Activity (M21 [8]): 68.5%; Activity (M21 [9]): 15.2%; Activity (M21 [10]): 5%; Activity (M21 [11]): 11.3%
O=C(NCCCl)Nc1ccc(S(=O)(=O)Oc2ccc(F)cc2)cc1 | 14 µM | 11 µM | 12 µM | 12 µM | 
CN(C)c1ccc(OS(=O)(=O)c2ccc(NC(=O)NCCCl)cc2)cc1 |  |  |  |  | IC50 ([6]; ht-1080): Not Active

SMILES | IC50 (MCF7) | IC50 [6, 34] | IC50 (HT-29) | IC50 (M21 [7]) | also measured
COc1ccc(OS(=O)(=O)c2ccc(NC(=O)NCCCl)cc2)cc1 | 23 µM | 15 µM | 22 µM | 17 µM | 
CCCc1ccc(OS(=O)(=O)c2ccc(NC(=O)NCCCl)cc2)cc1 | 13 µM | 5.2 µM | 11 µM | 12 µM | 
CCNC(=O)Nc1ccc(S(=O)(=O)Oc2ccccc2CC)cc1 |  | 0.36 µM |  |  | 
CC(C)c1ccccc1OS(=O)(=O)c1ccc(NC(=O)NCCCl)cc1 | 1.8 µM | 0.84 µM | 1.5 µM | 1.5 µM | Activity (M21 [1]): Active; Activity (M21 [2]): 51.8%; Activity (M21 [3]): 23.4%; Activity (M21 [4]): 1.2%; Activity (M21 [5]): 23.6%
Cc1cccc(OS(=O)(=O)c2ccc(NC(=O)NCCCl)cc2)c1 | 7.2 µM | 5.8 µM | 6 µM | 6.2 µM | 
Cc1cc(C)cc(OS(=O)(=O)c2ccc(NC(=O)NCCCl)cc2)c1 | 2.9 µM | 2.4 µM | 1.8 µM | 1.7 µM | 
O=C(NCCCl)Nc1ccc(S(=O)(=O)Oc2cc(F)c(F)c(F)c2)cc1 | 11.3 µM | 9.8 µM | 9.9 µM | 11.3 µM | 
Cc1ccc(OS(=O)(=O)c2ccc(NC(=O)NCCCl)cc2)c(C)c1 | 3.9 µM | 1.3 µM | 3.6 µM | 2.1 µM | Activity (M21 [28]): Active; Activity (M21 [20]): 23.8%; Activity (M21 [21]): 28.4%; Activity (M21 [22]): 1.4%; Activity (M21 [23]): 46.4%
O=C(NCCCl)Nc1ccc(S(=O)(=O)Oc2ccccc2F)cc1 | 6 µM | 3.2 µM | 5.4 µM | 4 µM | Activity (M21 [29]): 37.6%; Activity (M21 [30]): 34.6%; Activity (M21 [31]): 2.6%; Activity (M21 [32]): 25.2%; Activity (M21 [33]): Active
CCc1ccc(OS(=O)(=O)c2ccc(NC(=O)NCCCl)cc2)cc1 | 16 µM | 9.8 µM | 15 µM | 16 µM | 
O=C(NCCCl)Nc1ccc(S(=O)(=O)Oc2cccc(Br)c2)cc1 | 2.6 µM | 2 µM | 2.1 µM | 2.2 µM | Activity (M21 [16]): 4.4%; Activity (M21 [17]): 92.4%; Activity (M21 [18]): 1.6%; Activity (M21 [19]): 1.6%
N#Cc1ccc(OS(=O)(=O)c2ccc(NC(=O)NCCCl)cc2)cc1 | 19 µM | 14 µM | 18 µM | 19 µM | 
O=C(NCCCl)Nc1ccc(S(=O)(=O)Oc2cccc(I)c2)cc1 | 1.8 µM | 1.4 µM | 1.3 µM | 1.2 µM | Activity (M21 [24]): 89.5%; Activity (M21 [25]): 3.6%; Activity (M21 [26]): 4.9%; Activity (M21 [27]): 2%
O=C(NCCCl)Nc1ccc(S(=O)(=O)Oc2cccc([N+](=O)[O-])c2)cc1 | 18 µM | 10 µM | 17 µM | 17 µM | 
COc1ccc(OS(=O)(=O)c2ccc(NC(=O)NCCCl)cc2)cc1OC | 15 µM | 11 µM | 13 µM | 12 µM | 
